{
  "source": "patent US20030198617A1",
  "about": "“Pharmaceutical tryptophan containing dipeptide compositions and methods of use thereof” (priority 1993, published 2003)",
  "type_in_all_cases": "in vivo, human",
  "key": {"[1]": {"assay": "Gingival disease patients", "protocol": "Patients are treated for gingival disease by subcutaneous administration of Ile-Trp in the area of the gingiva. […] Administration of 100 μg IM, subcutaneously, or by electrophoresis (whereby a small voltage charge to the gums results in a rapid transfer of medication through the gum epithelium) results in the arresting of bleeding, more rapid restoration of inflammatory processes, and the decrease of purulent discharge. The treatment results in fewer recurrences and prolongation of normal gums."}, "[2]": {"assay": "Periapical granulomas", "details": "3 days", "protocol": "Patients with periapical granulomas treated with Ile-Trp are tested."}, "[3]": {"assay": "Lymphangitis"}, "[4]": {"assay": "Bronchial asthma", "source_text": "Patients, children and adults, with bronchial asthma are studied. […] A significant reduction in bronchial obstruction and laryngotracheitis is noted.\nA total of 37 patients, children and adults, with bronchial asthma and 28 similar patients as controls were studied. […] The significant reduction in bronchial obstruction and laryngotracheitis was noted. […] In some of the patients it was possible to avoid steroids in the conventional commitment treatment course. In the allowing year observation there was noted a decrease in the incidence of bronchial asthma 4.2 fold. In more than half of the patients the disappearance of drug and food allergy manifestations was noted."}, "[5]": {"test_system": "TB bacilli", "details": "5 doses"}, "[6]": {"assay": "Frostbite to the extremities", "protocol": "Patients with frostbite to the extremities are treated with Ile-Trp either IM or intranasally."}, "[7]": {"assay": "Toxemia of pregnancy", "protocol": "Ile-Trp is applied in pregnant women with Toxemia of first and second half of pregnancy. Ile-Trp is administered IM and intranasally at 100 μg daily for 5-10 days. It is observed that the BP normalized, and peripheral edema is reduced with normalization of the blood chemistry profile, and the restoration of initially altered immunologic indices.\nThe control group comprised 54 patients."}, "[8]": {"test_system": "hemorrhagic Dengue Fever", "assay": "Hemorrhagic Dengue Fever (Examples 38, 94)", "source_text": "Ile-Trp is applied in patients with hemorrhagic Dengue Fever. […]\nIt was also noted that the muscular and bone pain experienced typically was reduced, and the immunological indices were normalized."}, "[9]": {"test_system": "AIDS", "assay": "AIDS infected and immunosuppressed individuals"}, "[10]": {"test_system": "viral infection", "assay": "Acute respiratory disease patients", "protocol": "Patients with acute respiratory disease, including upper airway diseases, such as colds, are treated with Ile-Trp. […] Secondary infectious complications are diminished, and the duration of the treatment is also diminished.\nThere was noted a decrease in the specific signs of upper respiratory infections such rhinorrhea, sore throat, fever, muscle aches, headaches, and ear pain. Secondary infectious complications were diminished, and the duration of the treatment was also diminished."}, "[11]": {"test_system": "tropical malaria", "assay": "Relapsing tropical malaria", "protocol": "Patients are studied who have relapsing forms of tropical malaria, moderate to severe, and severe cases with 21 patients in the control group. Ile-Trp is administered at 100 μg single daily doses Im or intranasally for 5-10 days.\nA total of 33 patients were studied with patients who had relapsing forms of tropical malaria, moderate to severe, and severe cases with 21 patients in the control group."}, "[12]": {"assay": "Massive hemotransfusions in post-operative period", "protocol": "Patients exposed to massive hemotransfusions during post-operative period are treated with Ile-Trp. The peptide is administered starting from 4-6 day of post-operative period single daily IM or intranasally in doses 100 μg for 5 days."}, "[13]": {"assay": "Eye problems, with conventional treatment", "protocol": "Patients with various eye problems are treated by conventional methods, with one group receiving Ile-Trp in addition to the conventional treatment."}, "[14]": {"assay": "Wounds of various origin", "protocol": "Ile-Trp is used in patients with wounds of various origin, type and localization. Ile-Trp is administered IM or topically single daily at 100 μg for 10 days.\nThe control group comprised 24 patients."}, "[15]": {"assay": "Chronic and acute ear infections"}, "[16]": {"assay": "Pyelonephritis", "source_text": "The normal course of delivery in those women treated with IM862 was without complications."}, "[17]": {"test_system": "antibiotic-resistant staphylococci", "assay": "Chronic skin diseases caused by antibiotic-resistant staphylococci", "protocol": "Ile-Trp is administered to patients suffering from chronic skin diseases caused by antibiotic-resistant staphylococci. Ile-Trp is administered IM in single daily doses of 100 μg for 5 days and intranasally to a different group in the same daily and total dose. In the patients with signs of secondary T-immunodeficiency the staphylococci antibiotic sensitivity to one, few or all antibiotics is increased which then permits one to choose for each patient an effective antibiotic with exclusively high activity against a given pathogen.\n47 patients with the same pathology but not treated with the immunomodulator were the control group. […] The differences between these methods of application were not noticed. In all the patients with signs of secondary T-immunodeficiency the staphylococci antibiotic-sensitivity to one, few or all antibiotics has been increased sharply (more than 100-fold) what permitted further to choose for each patient the antibiotic with exclusively high activity against pathogen. As a whole, within the examined group of patients the reliable decease of MIC of all studied antibiotics has been marked. The proposed treatment regiment permitted to obtain the complete recovery in 27 patients, significant improvement—in 8 patients and moderate improvement—in 1 patient."}, "[18]": {"assay": "Infected patients with icterus (Example 95)", "details": "IM862 100 μg 5-10 days, 48 patients", "source_text": "The hematological and immunological indices were normalized."}},
  "note": "Entries after “also recorded” stand apart in the source; their conditions may differ. Like-named read-outs stand apart in the source and are kept apart here.",
  "data": [
    {"substance": "Glu-Trp [IM862]", "values": [
      {"measurement": "clinical effect", "setting": "[1]; IM862, subcutaneous in the gingiva", "result": "arresting of gingival disease"},
      {"measurement": "clinical effect", "setting": "[2]; IM862 100 μg instillation, 46 patients", "result": "accelerated arrestation of the inflammatory process"},
      {"measurement": "clinical effect", "setting": "[3]; IM862 100 μg", "result": "controls the advance of lymphangitis"},
      {"measurement": "decrease in the incidence of bronchial asthma", "setting": "[4]; IM862, following year observation", "result": 4.2, "unit": "fold"},
      {"measurement": "clinical effect", "setting": "[4]; IM862 IM 1 μg/kg 5-10 days, 37 patients", "result": "less severe clinical symptoms"},
      {"measurement": "clinical effect", "setting": "[5]; IM862 50 to 100 μg every other day, 2 months after the course, 37 patients", "result": "disappearance of toxic symptoms"},
      {"measurement": "clinical effect", "setting": "[6]; IM862 IM or intranasally, 17 patients", "result": "rapid healing and restoration of tissue integrity"},
      {"measurement": "clinical effect", "setting": "[7]; IM862 100 μg daily 5-10 days, 97 women", "result": "BP normalized"},
      {"measurement": "clinical effect", "setting": "[8]; IM862 IM 100 μg 3 days with conventional therapy, 21 patients", "result": "reduction in fever"},
      {"measurement": "immunological indices", "setting": "[9]; IM862, immunosuppressed individuals with radiation injuries", "result": "excellent restoration of immunological indices"},
      {"measurement": "comparison with TPI as cell mediator", "setting": "[9]; IM862 vs TPI", "result": "far more effective cell mediator"},
      {"measurement": "clinical effect", "setting": "[10]; IM862 100 μg 3-7 days, 186 patients", "result": "milder course of the viral infection"},
      {"measurement": "clinical effect", "setting": "[11]; IM862 100 μg 5-10 days, 33 patients", "result": "reduction of hepatolineal syndrome"},
      {"measurement": "alloblood rejection", "setting": "[12]; IM862 100 μg 5 days, 76 patients", "result": "None of studies patients showed clinical manifestation of alloblood rejection"},
      {"measurement": "clinical effect", "setting": "[13]; IM862 intra ocularly 18 μg 5 days or drops, 41 patients", "result": "more rapid arresting of the inflammatory process"},
      {"measurement": "wound healing", "setting": "[14]; IM862", "result": "speeded up; also recorded: accelerates wound healing"},
      {"measurement": "clinical effect", "setting": "[15]; IM862 with antibiotics", "result": "accelerated healing of chronic and acute ear infections"},
      {"measurement": "clinical effect", "setting": "[16]; IM862 100 μg 5-10 days with conventional therapy, 27 patients", "result": "reduction of fever"},
      {"measurement": "increase of staphylococci antibiotic-sensitivity", "setting": "[17]; IM862 100 μg 5 days, patients with secondary T-immunodeficiency", "result": "more than 100 fold"},
      {"measurement": "complete recovery, number of patients", "setting": "[17]; IM862 treatment regimen", "result": 27, "unit": "patients"},
      {"measurement": "moderate improvement, number of patients", "setting": "[17]; IM862 treatment regimen", "result": 1, "unit": "patient"},
      {"measurement": "significant improvement, number of patients", "setting": "[17]; IM862 treatment regimen", "result": 8, "unit": "patients"},
      {"measurement": "clinical effect", "setting": "[18]", "result": "normalization of fever"}
    ]},
    {"substance": "Ile-Trp", "values": [
      {"measurement": "clinical effect", "setting": "[1]; Ile-Trp, subcutaneous in the gingiva", "result": "arresting of gingival disease"},
      {"measurement": "clinical effect", "setting": "[2]; Ile-Trp 100 μg instillation", "result": "accelerated arrestation of the inflammatory process"},
      {"measurement": "clinical effect", "setting": "[3]; Ile-Trp 100 μg", "result": "controls the advance of lymphangitis"},
      {"measurement": "clinical effect", "setting": "[4]; Ile-Trp IM 1 μg/kg 5-10 days", "result": "less severe clinical symptoms"},
      {"measurement": "clinical effect", "setting": "[5]; Ile-Trp 50 to 100 μg every other day, with conventional therapy", "result": "disappearance of toxic symptoms"},
      {"measurement": "clinical effect", "setting": "[6]; Ile-Trp IM or intranasally", "result": "Rapid healing and restoration of tissue integrity"},
      {"measurement": "clinical effect", "setting": "[7]; Ile-Trp 100 μg daily 5-10 days", "result": "BP normalized"},
      {"measurement": "clinical effect", "setting": "[8]; Ile-Trp IM 100 μg 5 days with conventional therapy", "result": "reduction in fever"},
      {"measurement": "immunologic indices, T-cell functional activity, T4/T8 ratios", "setting": "[9]; Ile-Trp, AIDS infected individuals", "result": "restoring normal immunologic indices"},
      {"measurement": "immunological indices", "setting": "[9]; Ile-Trp, immunosuppressed individuals with radiation injuries", "result": "excellent restoration of immunological indices"},
      {"measurement": "clinical effect", "setting": "[10]; Ile-Trp 100 μg 3-7 days", "result": "milder course of the viral infection"},
      {"measurement": "clinical effect", "setting": "[11]; Ile-Trp 100 μg 5-10 days", "result": "reduction of hepatolineal syndrome"},
      {"measurement": "alloblood rejection", "setting": "[12]; Ile-Trp 100 μg 5 days", "result": "do not show clinical manifestation of alloblood rejection"},
      {"measurement": "clinical effect", "setting": "[13]; Ile-Trp intra ocularly 18 μg 5 days or drops", "result": "more rapid arresting of the inflammatory process"},
      {"measurement": "wound healing", "setting": "[14]; Ile-Trp", "result": "speeds up; also recorded: accelerates wound healing"},
      {"measurement": "clinical effect", "setting": "[15]; Ile-Trp with antibiotics", "result": "accelerated healing of chronic and acute ear infections"},
      {"measurement": "clinical effect", "setting": "[16]; Ile-Trp 100 μg 5-10 days with conventional therapy", "result": "reduction of fever"},
      {"measurement": "staphylococci antibiotic sensitivity", "setting": "[17]; Ile-Trp 100 μg 5 days, patients with secondary T-immunodeficiency", "result": "is increased"}
    ]}
  ]
}
